Several values for one entry are separate records, joined by “and”; a condition that tells them apart may be missing. Equal values may be shown once. Marks after values point to notes of the source that are not given here.
Key:
[1] = tested on: Candida albicans CCM 8261; assay: minimum fungistatic concentration, RPMI 1640; assay type: cell-based; conditions: CCM8261, CA = C albicans CCM 8261, 48 h
Method: Fungistatic activity was tested similarly in RPMI (Roswell Park Memorial Institute) 1640 medium (Sigma, Pool, UK). […] A growth control and sterility control were included. The colonies of C. albicans grown overnight on Sabourad dextrose agar were suspended in sterile phosphate-buffered saline (PBS) to get cell density 0.5 McFarland. The inoculum was diluted to get a final concentration of 10^3 CFU/mL in the wells. Plates were inoculated and cultivated at 37 °C for 48 h. The minimum fungistatic concentration was visually evaluated as the lowest concentration of a tested compound, which inhibited 100% of yeast growth. 5-Flucytosin (Sigma, UK) was used as a positive control.

[2] = design: method as in PMID 30274224; conditions: methanolic solutions, c = 8.0 × 10^−5 M; cited from earlier work
VRE 342B = assay: time-kill study; assay type: cell-based, Enterococcus faecalis; conditions: VRE1
From the text: (§1) Time-kill studies are used to evaluate the dynamics of antibacterial activity. As mentioned above, a pre-test to determine minimum bactericidal concentration (MBC) by sub-cultivation of aliquots on agar was made (see Section 3.4). […] Time-kill studies were made with methicillin-susceptible S. aureus ATCC 29213 and methicillin-resistant MRSA 63718, vancomycin-susceptible E. faecalis ATCC 29212, and all three VRE isolates. Vancomycin was used as a control (Table 6).
(§2) The method of time-kill curves was used to study the bactericidal effect of selected compounds. […] The experiment was performed with S. aureus ATCC 29213, MRSA 63718, E. faecalis ATCC 29212, and all VRE isolates. […] The tubes were inoculated by bacterial inoculum in the exponential phase of growth to get a final concentration of 7.5 × 10^6 CFU/mL. The tubes were incubated statically at 37 °C. Immediately after inoculation and after 4, 6, 8, and 24 h, 100 µL of the sample was serially diluted (1:10) in PBS. Then, 2 × 20 µL from each dilution were put onto a Mueller–Hinton agar plate and cultivated at 37 °C for 24 h. After incubation, CFUs of dilutions containing 5–50 colonies were counted. Results were expressed as a decrease of log10(CFU) in each time compared to the starting inoculum. Bactericidal effect is defined as a −3log decrease of CFU/mL compared to the growth control in time 0. The test was made in duplicate on two separate occasions, and the results were averaged. The growth curves with error bars are shown in Figures S1 and S2 in Supplementary Materials.

VRE 725B = assay: time-kill study; assay type: cell-based, Enterococcus faecalis; conditions: VRE3
From the text: as §1, §2

E. faecalis ATCC 29212 [3] = assay: time-kill study; assay type: cell-based, Enterococcus faecalis; conditions: EF
From the text: as §1, §2

VRE 368 = assay: time-kill study; assay type: cell-based, Enterococcus faecalis; conditions: VRE2
From the text: as §1, §2

E. faecalis ATCC 29212 [4] = assay: MIC, broth microdilution; assay type: cell-based, Enterococcus faecalis; conditions: Enterococcus faecalis, ATCC 29212 / ATCC 29213; EF = E. faecalis ATCC 29213
Method in brief: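 Broth microdilution in CaMH (staphylococci) or BHI (enterococci), 5 × 10^5 CFU/mL per well, 37 °C aerobic overnight.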

## CCCCCCOc1cccc(NC(=O)OC(CN(CCC)CCC)CN2CCCC2)c1.Cl.Cl (stereo not drawn) [1g, 1-[3-(dipropylammonio)-2-({[3-(hexyloxy)phenyl]carbamoyl}oxy)propyl]pyrrolidinium dichloride]
[1]
  MIC: 16 µg/mL and 30.8 µM
[2]
  log ε2 (Ch-T): 4.13
VRE 342B; 1 × MIC, 4 h
  Log10 Difference in CFU/mL from Inoculum: −0.14 log10 CFU/mL
VRE 342B; 1 × MIC, 6 h
  Log10 Difference in CFU/mL from Inoculum: 0.97 log10 CFU/mL
VRE 342B; 1 × MIC, 8 h
  Log10 Difference in CFU/mL from Inoculum: 1.01 log10 CFU/mL
VRE 342B; 1 × MIC, 24 h
  Log10 Difference in CFU/mL from Inoculum: 1.11 log10 CFU/mL
VRE 342B; 2 × MIC, 4 h
  Log10 Difference in CFU/mL from Inoculum: −0.36 log10 CFU/mL
VRE 342B; 2 × MIC, 6 h
  Log10 Difference in CFU/mL from Inoculum: −1.89 log10 CFU/mL
VRE 342B; 2 × MIC, 8 h
  Log10 Difference in CFU/mL from Inoculum: −0.64 log10 CFU/mL
VRE 342B; 2 × MIC, 24 h
  Log10 Difference in CFU/mL from Inoculum: 1.51 log10 CFU/mL
VRE 342B; 4 × MIC, 4 h
  Log10 Difference in CFU/mL from Inoculum: −0.92 log10 CFU/mL
VRE 342B; 4 × MIC, 6 h
  Log10 Difference in CFU/mL from Inoculum: −1.00 log10 CFU/mL
VRE 342B; 4 × MIC, 8 h
  Log10 Difference in CFU/mL from Inoculum: −1.09 log10 CFU/mL
VRE 342B; 4 × MIC, 24 h
  Log10 Difference in CFU/mL from Inoculum: 0.77 log10 CFU/mL
VRE 725B; 1 × MIC, 4 h
  Log10 Difference in CFU/mL from Inoculum: −0.09 log10 CFU/mL
VRE 725B; 1 × MIC, 6 h
  Log10 Difference in CFU/mL from Inoculum: −0.29 log10 CFU/mL
VRE 725B; 1 × MIC, 8 h
  Log10 Difference in CFU/mL from Inoculum: 0.19 log10 CFU/mL
VRE 725B; 1 × MIC, 24 h
  Log10 Difference in CFU/mL from Inoculum: 2.41 log10 CFU/mL
VRE 725B; 2 × MIC, 4 h
  Log10 Difference in CFU/mL from Inoculum: −0.75 log10 CFU/mL
VRE 725B; 2 × MIC, 6 h
  Log10 Difference in CFU/mL from Inoculum: −0.74 log10 CFU/mL
VRE 725B; 2 × MIC, 8 h
  Log10 Difference in CFU/mL from Inoculum: 0.56 log10 CFU/mL
VRE 725B; 2 × MIC, 24 h
  Log10 Difference in CFU/mL from Inoculum: 0.43 log10 CFU/mL
VRE 725B; 4 × MIC, 4 h
  Log10 Difference in CFU/mL from Inoculum: −1.85 log10 CFU/mL
VRE 725B; 4 × MIC, 6 h
  Log10 Difference in CFU/mL from Inoculum: −1.85 log10 CFU/mL
VRE 725B; 4 × MIC, 8 h
  Log10 Difference in CFU/mL from Inoculum: −2.15 log10 CFU/mL
VRE 725B; 4 × MIC, 24 h
  Log10 Difference in CFU/mL from Inoculum: −2.27 log10 CFU/mL
E. faecalis ATCC 29212 [3]; 1 × MIC, 4 h
  Log10 Difference in CFU/mL from Inoculum: −1.63 log10 CFU/mL
E. faecalis ATCC 29212 [3]; 1 × MIC, 6 h
  Log10 Difference in CFU/mL from Inoculum: −1.01 log10 CFU/mL
E. faecalis ATCC 29212 [3]; 1 × MIC, 8 h
  Log10 Difference in CFU/mL from Inoculum: −0.61 log10 CFU/mL
E. faecalis ATCC 29212 [3]; 1 × MIC, 24 h
  Log10 Difference in CFU/mL from Inoculum: 0.27 log10 CFU/mL
E. faecalis ATCC 29212 [3]; 2 × MIC, 4 h
  Log10 Difference in CFU/mL from Inoculum: −3.37 * log10 CFU/mL
E. faecalis ATCC 29212 [3]; 2 × MIC, 6 h
  Log10 Difference in CFU/mL from Inoculum: −3.43 * log10 CFU/mL
E. faecalis ATCC 29212 [3]; 2 × MIC, 8 h
  Log10 Difference in CFU/mL from Inoculum: −2.68 log10 CFU/mL
E. faecalis ATCC 29212 [3]; 2 × MIC, 24 h
  Log10 Difference in CFU/mL from Inoculum: 1.04 log10 CFU/mL
E. faecalis ATCC 29212 [3]; 4 × MIC, 4 h
  Log10 Difference in CFU/mL from Inoculum: −5.62 * log10 CFU/mL
E. faecalis ATCC 29212 [3]; 4 × MIC, 6 h
  Log10 Difference in CFU/mL from Inoculum: −5.14 * log10 CFU/mL
E. faecalis ATCC 29212 [3]; 4 × MIC, 8 h
  Log10 Difference in CFU/mL from Inoculum: −5.92 * log10 CFU/mL
E. faecalis ATCC 29212 [3]; 4 × MIC, 24 h
  Log10 Difference in CFU/mL from Inoculum: −0.31 log10 CFU/mL
VRE 368; 1 × MIC, 4 h
  Log10 Difference in CFU/mL from Inoculum: −2.00 log10 CFU/mL
VRE 368; 1 × MIC, 6 h
  Log10 Difference in CFU/mL from Inoculum: 0.29 log10 CFU/mL
VRE 368; 1 × MIC, 8 h
  Log10 Difference in CFU/mL from Inoculum: 0.25 log10 CFU/mL
VRE 368; 1 × MIC, 24 h
  Log10 Difference in CFU/mL from Inoculum: −0.16 log10 CFU/mL
VRE 368; 2 × MIC, 4 h
  Log10 Difference in CFU/mL from Inoculum: −2.34 log10 CFU/mL
VRE 368; 2 × MIC, 6 h
  Log10 Difference in CFU/mL from Inoculum: −1.97 log10 CFU/mL
VRE 368; 2 × MIC, 8 h
  Log10 Difference in CFU/mL from Inoculum: −1.01 log10 CFU/mL
VRE 368; 2 × MIC, 24 h
  Log10 Difference in CFU/mL from Inoculum: 0.32 log10 CFU/mL
VRE 368; 4 × MIC, 4 h
  Log10 Difference in CFU/mL from Inoculum: −2.72 * log10 CFU/mL
VRE 368; 4 × MIC, 6 h
  Log10 Difference in CFU/mL from Inoculum: −2.71 * log10 CFU/mL
VRE 368; 4 × MIC, 8 h
  Log10 Difference in CFU/mL from Inoculum: −2.45 log10 CFU/mL
VRE 368; 4 × MIC, 24 h
  Log10 Difference in CFU/mL from Inoculum: 0.97 log10 CFU/mL
E. faecalis ATCC 29212 [4]
  MIC: 16 µg/mL and 30.8 µM
